Measurements from paper PMC11778240, “Synthesis and preclinical evaluation of tigilanol tiglate analogs as latency-reversing agents for the eradication of HIV” (Science Advances, 2025).

Experiments:
PKC-δ fused to GFP = target: T1, PKC-δ fused to GFP (Homo sapiens, UniProt Q05655); assay: PKC-GFP translocation assay in CHO-K1 cells (confocal microscopy); format: cell-based; conditions: 1500 nM, within 10 min
T1 construct: host or cells: CHO-K1
Description: (§1) Using confocal microscopy, this assay allows us to visualize, in real time, cell permeation and the ligand-induced translocation of specific PKC isoforms from the cytosol to the membranes of the cell—the hallmark of PKC activation ([29], [68]). […] In alignment with past studies on the activation of PKC in CHO-K1 cells ([22], [65], [69]), we observed strong plasma membrane translocation of PKC-β (Fig. 7C).
(§2) Agar stabs of DH5-alpha (high copy) bacterial cells, containing plasmids for expression of mammalian PKC-δ (Plasmid #: 178856) and PKC-β (Plasmid #: #112265) fused to EGFP under constitutive mammalian promoters CAG and CMV, respectively, were purchased from Addgene.
(§3) Upon receipt, these stabs were incubated at 37 °C in 5% CO2 for 24 hours to allow sufficient bacterial growth. Following incubation, a sterile pipette tip was utilized to streak bacteria onto LB agar plates that are positive for the respective antibiotic that selects for each plasmid. For bacteria containing Plasmid #: 178856, bacteria were streaked onto CellPro™ LB (Lennox) + Ampicillin 100 μg/ml while bacteria containing Plasmid #: 112265 was streaked onto CellPro™ LB (Miller) + Kanamycin 50 μg/ml and incubated for 24 hours at 37 °C in 5% CO2 in order to isolate single colonies of bacteria. Single, isolated bacterial colonies were selected utilizing a sterile pipette tip and placed in polypropylene culture tubes with vented stoppers containing 2mL of LB Broth Miller (Catalog No. BP1426-500) and the respective antibiotic for each plasmid at the recommended concentration of 100 μg/ml for ampicillin and 50 μg/ml for kanamycin. Following inoculation, these liquid cultures were placed on a shaker at 37 °C at 225rpm for 24 hours. The next day, the plasmids were sequestered and purified from the bacteria utilizing the Thermo Scientific™ GeneJET Plasmid Miniprep Kit (Catalog No. K0502).
(§4) PKC-β/PKC-δ plasmid purification
(§5) To sequester and purify plasmid from each culture tube, bacteria was resuspended in culture and transferred to sterile 1.7mL microcentrifuge tubes with 1 mL of bacteria placed into each tube. To harvest the bacteria, microcentrifuge tubes were placed in a microcentrifuge and spun at 8000 rpm for 2 minutes at room temperature. Note that all subsequent centrifugations were performed in a tabletop microcentrifuge at room temperature. Following centrifugation, the supernatant was decanted and 250 μL of Resuspension solution was added to the pelleted cells and vortexed.
(§6) Afterwards, 250 μL of Lysis Solution was added to the resuspended bacterial cells and tubes were inverted 4-6 times and allowed to incubate for no more than 5 minutes to avoid denaturation of the plasmid DNA. After lysing the bacterial cells, 350 μL of Neutralization Solution was immediately added and tubes were inverted 4-6 times. Tubes were then centrifugated for 5 minutes at 14,000 rpm to pellet the cell debris and chromosomal DNA. The supernatant was then carefully aspirated using a pipette, taking care not to distribute the white precipitate of cell and DNA debris and transferred to the GeneJET spin columns, provided in the GeneJET Miniprep Kit. The spin columns were subsequently centrifugated for 1 minute, the flow-through was discarded, and the column was placed back into the same collection tube. 500 μL of Wash Solution, diluted with 96% ethanol, was added to the column, and the column was centrifugated for 1 minute at 14,000 rpm.
(§7) The flow-through was discarded and the column was placed back into the same collection tube.
(§8) This wash process was repeated a second time, after which the spin columns were centrifugated for an additional 1 minute to ensure all residual Wash solution was removed from the plasmids.
(§9) The GeneJET spin columns were then transferred to new 1.7mL microcentrifuge tubes, and 50 μL of Elution Buffer was added to the center of the spin column to allow optimal elution of the plasmid
(§10) DNA. Before centrifugating for 2 minutes, the columns were allowed to incubate for 2 minutes at […]
(§11) room temperature. […]

PKC-β fused to GFP = target: T2, PKC-β fused to GFP (Homo sapiens, UniProt P05771); assay: as above; format: cell-based; conditions: 500 nM, within 10 min
T2 construct: host or cells: CHO-K1
Description: as §1, §2, §3, §4, §5, §6, §7, §8, §9, §10, §11

J-Lat clone 10.6 cells = assay: J-Lat HIV latency reversal assay (GFP expression); format: cell-based, Human; conditions: J-Lat 10.6, 48 hours; for HIV latency reversal in words: ascending concentrations
Description: Having shown that our lead compounds bind cell-free PKC isoforms, enter cells, translocate PKC-GFP fusion proteins, and activate NF-κB transcription factors, we next set out to determine whether our analogs were capable of reversing HIV from latency. We performed in vitro assays using T lymphocyte J-Lat clone 10.6, which contains a latent near full-length replication-incompetent integrated HIV DNA genome ([72]). J-Lat 10.6 lacks two viral genes, env and nef, which encode for the envelope protein and an accessory protein, respectively, and thus cannot initiate a spreading HIV infection. The integrated HIV provirus also encodes a GFP reporter gene, allowing latency reversal to be measured by quantification of GFP expression (fig. S1). […] In this latency reversal assay, we quantified GFP expression 48 hours after compound addition and observed bryostatin 1 to be maximally effective at concentrations of 40 nM or higher with latency reversal in 12% of cells (Fig. 8). Given the efficacy of bryostatin 1 as an LRA ([73], [74]), EBC-46 and many of its analogs tested in this J-Lat assay induced latency reversal in >90% of cells. […] SUW427, an esterase-releasable prodrug of EBC-46, also performed similarly to EBC-46 with a maximum efficacy of latency reversal in >90% of cells at a dose of 250 nM. […] The gradual release of EBC-46 from its prodrug form provides an alternative mode of administration that avoids the bolus effect associated with rapid drug administration ([17]). […] This is consistent with its lack of activity in the NF-κB activation assay and its design as a negative control as it is structurally similar to EBC-46 but unable to bind to the C1 domain of PKC at the concentrations used in this assay as it lacks a complete pharmacophore.
HIV latency reversal in-vitro assay
Human T Lymphocyte J-Lat Full Length Cell Line 10.6 (cat #9849) was obtained through the NIH HIV Reagent Program, Division of AIDS, NIAID, NIH and was contributed to the NIH HIV Reagent Program by Dr. Eric Verdin (70). J-Lat 10.6 cells were plated at 5 × 10^5 cells in 180 μL of RF10 media consisting of RPMI media supplemented with 1% Penicillin/Streptomycin and 10% Fetal Bovine Serum (FBS) in 96 -well U -bottom plates. J -Lat 10.6 cells were then stimulated for 48 hr by adding 20 μL of newly designed and synthesized tigilanol tiglate analogs, PKC modulators (bryostatin 1) as our positive control or med ia only (mock) as our negative control. Our negative control was RF10 media as the tigilanol tiglate analogs were freshly diluted with RF10 prior to plating. The final volume was 200 μL per well. Experiments were performed in three independent biological replicates, each completed in technical duplicates (n = 6). After 48 hr stimulation, 96 - well U -bottom plates were centrifuged at 296 RCF for 7 minutes to pellet cells, which were resusp ended in 200 μL of freshly prepared 2% paraformaldehyde (PFA) in PBS. GF P expression was measured 24 -hours post -fixation using the FITC channel on a LSR Fortessa (BD Biosciences) flow cytometer. Data analysis was conducted with FlowJo software version 10.8.1.

T1 sequence (Q05655 whole entry, the tested form may be a part): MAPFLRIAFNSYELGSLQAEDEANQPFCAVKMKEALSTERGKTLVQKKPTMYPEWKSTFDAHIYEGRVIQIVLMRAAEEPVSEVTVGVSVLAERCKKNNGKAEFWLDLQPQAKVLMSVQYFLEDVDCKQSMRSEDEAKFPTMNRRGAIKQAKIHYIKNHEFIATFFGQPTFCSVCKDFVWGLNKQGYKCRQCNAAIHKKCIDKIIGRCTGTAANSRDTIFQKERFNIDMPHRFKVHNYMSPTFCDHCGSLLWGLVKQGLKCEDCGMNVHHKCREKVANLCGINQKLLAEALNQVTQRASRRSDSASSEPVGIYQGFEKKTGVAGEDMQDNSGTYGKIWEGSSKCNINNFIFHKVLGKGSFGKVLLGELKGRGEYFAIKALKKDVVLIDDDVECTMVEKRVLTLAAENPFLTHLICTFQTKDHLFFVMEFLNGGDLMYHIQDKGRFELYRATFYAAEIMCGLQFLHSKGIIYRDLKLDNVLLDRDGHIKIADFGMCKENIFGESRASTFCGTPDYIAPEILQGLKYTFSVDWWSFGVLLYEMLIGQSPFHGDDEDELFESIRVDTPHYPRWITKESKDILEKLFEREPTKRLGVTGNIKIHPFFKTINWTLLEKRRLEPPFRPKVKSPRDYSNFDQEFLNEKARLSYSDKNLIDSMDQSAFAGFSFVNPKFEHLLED
T2 sequence (P05771 whole entry, the tested form may be a part): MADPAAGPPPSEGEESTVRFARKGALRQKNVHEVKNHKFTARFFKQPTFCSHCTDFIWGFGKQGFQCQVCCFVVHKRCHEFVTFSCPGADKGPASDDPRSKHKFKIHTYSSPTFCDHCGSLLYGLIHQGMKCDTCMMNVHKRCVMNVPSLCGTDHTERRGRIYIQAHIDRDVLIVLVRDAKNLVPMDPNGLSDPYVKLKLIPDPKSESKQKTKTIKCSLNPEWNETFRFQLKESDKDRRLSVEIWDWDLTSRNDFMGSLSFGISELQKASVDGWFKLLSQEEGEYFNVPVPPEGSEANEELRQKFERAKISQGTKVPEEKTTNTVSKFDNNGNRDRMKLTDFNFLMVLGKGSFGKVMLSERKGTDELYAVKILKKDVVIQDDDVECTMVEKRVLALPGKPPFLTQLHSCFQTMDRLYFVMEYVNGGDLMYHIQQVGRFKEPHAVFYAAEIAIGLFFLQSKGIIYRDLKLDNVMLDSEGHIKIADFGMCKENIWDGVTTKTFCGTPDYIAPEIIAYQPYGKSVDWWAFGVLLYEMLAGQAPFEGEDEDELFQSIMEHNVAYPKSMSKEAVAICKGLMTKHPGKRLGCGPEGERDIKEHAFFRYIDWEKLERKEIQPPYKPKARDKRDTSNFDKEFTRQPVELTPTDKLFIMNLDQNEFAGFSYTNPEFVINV

Structure (SMILES)	HIV latency reversal in words (J-Lat clone 10.6 cells)	other results
C/C=C(\C)C(=O)O[C@@H]1[C@@H](C)[C@@]2(O)[C@H]([C@@H]3C(C)(C)[C@]13OC(=O)[C@@H](C)CC)[C@@H]1O[C@]1(CO)[C@@H](O)[C@]1(O)C(=O)C(C)=C[C@H]12 [EBC-46, Tigilanol tiglate]		translocation of PKC-δ-GFP in words (PKC-δ fused to GFP): selectively induced perinuclear translocation of PKC-δ; translocation of PKC-β-GFP in words (PKC-β fused to GFP): effectively translocate PKC-β at 500 nM
C/C=C(\C)C(=O)O[C@@H]1[C@@H](C)[C@]2(O)[C@@H]3C=C(C)C(=O)[C@@]3(O)[C@H](O)C(CO)=C[C@H]2[C@@H]2C(C)(C)[C@]12OC(=O)[C@@H](C)CC [SUW400]		maximal latency reversal, % of cells (J-Lat clone 10.6 cells; 250 nM): > 90 % of cells
CC=C(C)C(=O)OC1C(C)C2(O)C(C3OC3(CO)CC3(O)C(=O)C(C)=CC32)C2C(C)(C)C12OC(=O)C(C)CC (stereo not drawn) [SUW403]	required a higher dose than EBC-46 before we detected reversal activity	
C/C=C(\C)C(=O)O[C@@H]1[C@@H](C)[C@@]2(O)[C@H]([C@@H]3C(C)(C)[C@]13OC(=O)C1CCC1)[C@@H]1O[C@]1(CO)[C@@H](O)[C@]1(O)C(=O)C(C)=C[C@H]12 [SUW406]	required a higher dose than EBC-46 before we detected reversal activity	
C/C=C(\C)C(=O)O[C@@H]1[C@@H](C)[C@@]2(O)[C@H]([C@@H]3C(C)(C)[C@]13OC(=O)[C@H](C)CC)[C@@H]1O[C@]1(CO)[C@@H](O)[C@]1(O)C(=O)C(C)=C[C@H]12 [SUW407]	required a higher dose than EBC-46 before we detected reversal activity	
CC[C@H](C)C(=O)O[C@@]12[C@H](OC(=O)C3(C)CC3)[C@@H](C)[C@@]3(O)[C@H]([C@@H]1C2(C)C)[C@@H]1O[C@]1(CO)[C@@H](O)[C@]1(O)C(=O)C(C)=C[C@H]13 [SUW413]	required a higher dose than EBC-46 before we detected reversal activity	
C/C=C(\C)C(=O)O[C@@H]1[C@@H](C)[C@]2(O)[C@@H]3C=C(C)[C@H](OC(=O)c4ccccc4)[C@@]3(O)[C@H](O)C(CO)=C[C@H]2[C@@H]2C(C)(C)[C@]12OC(=O)[C@@H](C)CC [SUW422]	required a higher dose than EBC-46 before we detected reversal activity	
C/C=C(\C)C(=O)O[C@@H]1[C@@H](C)[C@]2(O)[C@@H]3C=C(C)[C@H](OC(=O)C=C(C)C)[C@@]3(O)[C@H](O)C(CO)=C[C@H]2[C@@H]2C(C)(C)[C@]12OC(=O)[C@@H](C)CC [SUW425]	required a higher dose than EBC-46 before we detected reversal activity	
CC=C(C)C(=O)OC1C(C)C2(O)C(C3OC3(COC)C(O)C3(O)C(=O)C(C)=CC32)C2C(C)(C)C12OC(=O)C(C)CC (stereo not drawn) [SUW426]	did not produce latency reversal at any tested concentration	
C/C=C(\C)C(=O)O[C@@H]1[C@@H](C)[C@@]2(O)[C@H]([C@@H]3C(C)(C)[C@]13OC(=O)c1ccccc1)[C@@H]1O[C@]1(CO)[C@@H](O)[C@]1(O)C(=O)C(C)=C[C@H]12 [SUW428]	required a higher dose than EBC-46 before we detected reversal activity	
CC[C@H](C)C(=O)O[C@@]12[C@H](OC(C)(C)C)[C@@H](C)[C@@]3(O)[C@H]([C@@H]1C2(C)C)[C@@H]1O[C@]1(CO)[C@@H](O)[C@]1(O)C(=O)C(C)=C[C@H]13 [SUW430]	required a higher dose than EBC-46 before we detected reversal activity	translocation of PKC-δ-GFP in words (PKC-δ fused to GFP): selectively induced perinuclear translocation of PKC-δ; translocation of PKC-β-GFP in words (PKC-β fused to GFP): effectively translocate PKC-β at 500 nM
C/C=C(\C)C(=O)O[C@@H]1[C@@H](C)[C@@]2(O)[C@H]([C@@H]3C(C)(C)[C@]13OC(=O)Cc1cccc3ccccc13)[C@@H]1O[C@]1(CO)[C@@H](O)[C@]1(O)C(=O)C(C)=C[C@H]12 [SUW431]	effectively activates latent HIV at substantially lower concentrations than EBC-46	translocation of PKC-δ-GFP in words (PKC-δ fused to GFP): strong perinuclear and plasma membrane translocation of PKC-δ; translocation of PKC-β-GFP in words (PKC-β fused to GFP): effectively translocate PKC-β at 500 nM; latency reversal, % of cells (J-Lat clone 10.6 cells; 40 nM): 90 % of cells
